Values of other authors in patent publication US6051685A, “Peptide derivatives” (Daiichi Pharmaceuticals Co., Ltd., priority 1994, dated 2000).

Experiments:
[1] = intraventricular administration
[2] = in vivo

C[C@@H](NC(=O)[C@@H](N)Cc1ccc(O)cc1)C(=O)N[C@@H](Cc1ccccc1)C(=O)NCC(=O)N[C@@H](Cc1ccc(O)cc1)C(=O)N1CCC[C@H]1C(=O)N[C@@H](CO)C(N)=O [Delmorfine, Dermorphin]
analgesic effect relative to morphine [1]: about 1,000 fold | stability in living bodies [2]: relatively stable in living bodies
